# Assay results as given in US8232253B2, “Treatment of lung cancer” (Ramot at Tel-Aviv University Ltd., priority 2006, dated 2012).
# How the values were obtained:
# A549 cells [1] = assay: BrdU incorporation into DNA; format: cell-based; conditions: Homo sapiens, 75 μM FTS, 48 h, read-out: inhibition of incorporation of BrdU into DNA relative to vehicle-treated control
# Protocol: A549 cells were plated on glass cover slips (1.2×10^5 cells/well in 6-well plates) and incubated for 24 h in medium containing 5% FCS. The cells were then incubated for 24 h with or without 75 μM FTS and then for 24 h with 5-bromo-2-deoxyuridine (BrdU) (Zymed BrdU labeling kit, 1:100 dilution). Cells were fixed with 4% paraformaldehyde, permeabilized with 0.2% Triton X-100 (BDH, Poole, UK), washed with PBS, blocked with TBS Tween (TBST; 50 mM Tris, pH 7.4, 100 mM NaCl, 0.1% Tween 20) containing 1% bovine serum albumin (BSA), treated sequentially with 2 N HCl and 0.1 M sodium borate pH 8.5, and then blocked with goat γ-globulin and washed with TBST-BSA (described above). The cells were then labeled successively with mouse anti-BrdU antibody (Ab) (Zymed kit; 1:50 dilution), biotinylated rabbit anti mouse IgG (5 μg/ml), and Cy3-streptavidin (1.5 μg/ml). Cells with BrdU-stained nuclei were counted under a fluorescence microscope.
# To investigate the effect of FTS on lung cancer cell proliferation, we first incubated A549 cells that harbor the activated K-ras gene mutated at codon 12. A549 cells are commonly used as a model for drug screening. […] The number of cells in the FTS-treated cultures was determined by direct counting of A549 cells grown for 6 days in the presence of FTS and was expressed as a percentage of the number recorded in the controls. […]
# A549 cells [2] = assay: Immunofluorescence of cytoskeleton (F-actin, vinculin) and cell morphology; format: cell-based, human; conditions: 75 μM FTS, 48 h
# Protocol: A549 cells were plated on glass cover slips (2×10^4 cells/well in 6-well plates), incubated for 24 h in medium containing 5% FCS, and then incubated for 48 h with or without 75 μM FTS. The cells were fixed and permeabilized at room temperature by successive incubations with 3.7% formaldehyde (20 min) and 0.2% Triton X-100 in PBS (5 min), then washed for 5 min with UB buffer (150 mM NaCl, 10 mM Tris pH 7.6, and 0.2% sodium azide in PBS) and blocked with 2% BSA in UB (UBB, 5 min). The fixed cells were incubated successively with naïve goat IgG for 30 min (200 μg/ml, Jackson ImmunoResearch Laboratories, West Grove, Pa.), anti-vinculin Ab for 1 h (1:400, Sigma-Aldrich), goat anti-mouse Cy2-conjugated Ab for 1 h (1:200, Jackson), and rhodamine-labeled phalloidin for 1 h (1:1000, Sigma-Aldrich). Between each of the above steps the cells were washed for 30 min with UBB. Lastly, the cover slips were washed with UB, dried, and mounted onto the slides with Muviol. F-actin (red) and vinculin (green) were visualized with a Zeiss LSM 510 confocal microscope fitted with non-leaking green and red fluorescence filters. Co-localization was assessed using the co-localization function of the LSM 510 software. […]
# phospho-ERK = assay: Phospho-ERK immunoblotting in A549 cells; format: cell-based, human
# Protocol: A549 cells were incubated for 24 or 48 h with or without FTS, as described above, and then lysed with lysis buffer as described in Haklai, R., Gana-Weisz, M., Elad, G., et al., Biochemistry 37:1306-14 (1998). The apparent amounts of K-Ras-GTP in 0.5 mg protein of total cell lysates were determined by the glutathione-S-transferase (GST)-RBD (Ras-binding domain of Raf) pull-down assay, as described in (Elad-Sfadia, G., Haklai, R., Ballan, E., Gabius, H. J., Kloog, Y., J Biol Chem 277:37169-75 (2002). The apparent amounts of Rac1-GTP and of RhoA-GTP, each in 2 mg protein of total cell lysates, were determined, respectively, by pull-down assays with GST-PBD (Rac1-binding domain of PAK1)-conjugated and GST-Rhotekin BD (Rho-binding domain of Rhotekin)-conjugated beads [Benard, V., Bohl, B. P., Bokoch, G. M, J Biol Chem 274:13198-204 (1999); Fiordalisi, J. J., Keller, P. J., Cox, A. D., Cancer Res 66:3153-61 (2006). […] Levels of phospho-ERK and phospho-Akt were determined by immunoblotting [Haklai, R., Gana-Weisz, M., Elad, G., et al., supra.] using rabbit anti phospho-ERK1/2 Ab (Santa Cruz Biotechnology, Santa Cruz, Calif.) and rabbit anti phospho-Akt Ab (Cell Signaling, Beverly, Mass.). Protein bands were visualized by enhanced chemiluminescence and quantified by densitometry using ImageJ computer software (National institutes of Health, Bethesda, Md.). […]
structure (smiles),measurement,setting,value
"CC(C)=CCC/C(C)=C/CC/C(C)=C/CSc1ccccc1C(=O)O [FTS, S-farnesylthiosalicylic acid]",inhibition at 75 µM,A549 cells [1],56.7 ± 17.4%
same,cells that had undergone changes in cell morphology,A549 cells [2],more than 80%
same,inhibition of phospho-ERK level,phospho-ERK,33±2%
